Each structure is given as a SMILES string.

The values below come from paper PMC11480411, “Mucosal sugars delineate pyrazine vs pyrazinone autoinducer signaling in Klebsiella oxytoca” (Nature Communications, 2024).

The subject of the assay is leup operon (leupeptin BGC) promoter in K. oxytoca ATCC 8724. Nature of the assay: GFP-based transcriptional reporter for the leup operon. It counts as cell-based, Klebsiella oxytoca. To be noted: carbohydrate screen, M9 + casamino acid + 0.4% indicated sugar, 30 °C, 24 h; for GFP fluorescence, GFP Strain + Media: leup GFP reporter strain; for GFP fluorescence, WT + Media: wildtype K. oxytoca without reporter (background). From the text:
We previously examined a panel of 84 clinical K. oxytoca isolates (including recently renamed Klebsiella michiganensis isolates) for the presence of either the leup operon or npsB, an NRPS of the tilimycin/tilivalline gene cluster. […] While the roles of tilivalline and tilimycin in hemorrhagic colitis are well studied[8],[9], the operon for leupeptin biosynthesis is “silent” in K. oxytoca under typical laboratory culture conditions (i.e., leupeptin production is undetectable). Therefore, our study commenced by exploring growth conditions required to trigger leupeptin biosynthesis in K. oxytoca. To achieve this, we generated a green fluorescent protein (GFP)-based reporter system to monitor leup transcription in K. oxytoca ATCC 8724 (recently renamed as Klebsiella michiganensis (ATCC 8724), Fig. 1a). We utilized λ-red recombineering techniques[38] to replace the first biosynthetic gene (leupA) of the leupeptin BGC with a GFP-spectinomycin resistance cassette. […] Consequently, conditions that elicit transcription of the leupeptin BGC can be monitored by GFP fluorescence intensity.
5 mL of the leupeptin reporter strain was cultured aerobically in 10 g/L of LB (Becton Dickinson), yeast extract, GAM (HiMedia Laboratories), horse liver extract (HiMedia Laboratories), malt extract (VWR), meat extract (HiMedia Laboratories), YPD (Dot Scienticifc), brain heart infusion (Becton Dickinson), porcine mucin (Sigma-Aldrich, M1778), clostridial (Becton Dickinson), TSB (VWR), or casamino acid supplemented (5 g/L, VWR) M9 minimal salts (MP Biomedicals) at 30 °C for 24 h at 250 rpm. Cultures were lysed via sonication, centrifuged, and 150 µL of the supernatants were aliquoted into black well clear bottom 96 well plates. GFP fluorescence measurements were performed on a BioTek Synergy H1 plate reader with an excitation wavelength of 488 nm and an emission wavelength of 525 nm. For the carbohydrate screen, the leupeptin reporter strain was cultured in M9 minimal medium (MPbio) supplemented with casamino acid (5 g/L, VWR) and 0.4% indicated sugar aerobically at 30 °C for 24 h at 250 rpm.

On to `O=C(CO)[C@@H](O)[C@H](O)[C@H](O)CO` [Fructose], for which the “GFP fluorescence, GFP Strain + Media” value came to 9618 RFU and the “GFP fluorescence, WT + Media” value is given as 6828 RFU.
Turning to `CC(=O)N[C@H]1C(O)O[C@H](CO)[C@H](O)[C@@H]1O` (stereo partly drawn) [GalNAc], the “GFP fluorescence, GFP Strain + Media” value is 9643 RFU and the “GFP fluorescence, WT + Media” value came to 8779 RFU.
Consider `O=C[C@H](O)[C@@H](O)[C@@H](O)[C@H](O)CO` [Galactose], for which the “GFP fluorescence, GFP Strain + Media” value came out at 9159 RFU and the “GFP fluorescence, WT + Media” value worked out at 6849 RFU.
Take `CC(=O)N[C@@H]1[C@@H](O)[C@H](O)[C@@H](CO)O[C@H]1O` [GlcNAc]: the “GFP fluorescence, GFP Strain + Media” value came to 9678 RFU and the “GFP fluorescence, WT + Media” value is 5235 RFU.
As to `N[C@H]1C(O)O[C@H](CO)[C@@H](O)[C@@H]1O` (stereo partly drawn) [Glucosamine], the “GFP fluorescence, GFP Strain + Media” value was 9974 RFU and the “GFP fluorescence, WT + Media” value is 5479 RFU.
Turning to `OC[C@H]1OC(O)[C@H](O)[C@@H](O)[C@@H]1O` (stereo partly drawn) [Glucose], the “GFP fluorescence, GFP Strain + Media” value is listed as 9593 RFU and the “GFP fluorescence, WT + Media” value came out at 8596 RFU.
On to `CC(C)S[C@@H]1O[C@H](CO)[C@H](O)[C@H](O)[C@H]1O` [IPTG], for which the “GFP fluorescence, GFP Strain + Media” value came out at 9918 RFU and the “GFP fluorescence, WT + Media” value was 8873 RFU.
On the same counts, the results for `OC[C@@H](O)[C@@H](O)[C@H](O)[C@@H](O)CO` [Sorbital] are 10051 RFU and 6226 RFU.
On the same counts, the results for `O=C[C@H](O)[C@@H](O)[C@H](O)CO` [Xylose] are 9892 RFU and 5418 RFU.
